Patent US20180118721A1, “PYRIMIDINE DERIVATIVES” (Merck Patent GmbH, priority 2015, published 2018)
Converted amounts (≈) assume the structure as drawn.

Legend:
[1] = biological target: T1, purified human recombinant MTH1 (human MTH1, residues 42-197) (Homo sapiens, UniProt P36639); assay: MTH1 enzymatic assay (luminescence-based, PPiLight); assay type: biochemical; conditions: Table 2
T1 construct: human MTH1, residues 42-197, Uniprot-ID: P36639, expressed in E. coli; made in house; host or cells: E. coli

[2] = Shake flask solubility measurement; assay type: physicochemical; conditions: aqueous buffer, thermodynamic from solid, phosphate buffer pH 7.4, 37° C.
Description: Compound solubility in aqueous solution is determined by a standard method in the art, the shake flask method. Solubility measurement is performed under equilibrium conditions at pH 7.4. Samples are prepared by dissolving an excess of the test compound in a phosphate buffer (made up of 3,954 g sodium hydrogenphosphate-monohydrate, 6,024 g sodium chloride, 950 ml ultrapure water and adjusted to pH 7.4 with 0.1 M NaOH or 0.1 M HCl). These samples are shaken at 37° C. with 450 rpm (shaker: TiMix control Bühler) for 24 h in total until equilibrium is reached. After 7 hours shaking, the pH value of the sample is controlled and adjusted, if necessary. It is also checked that the sample (test compound) is available in excess. Shortly before the end of 24 h, samples are checked again for pH and precipitate. At the end of 24 h and after separation of the solid by filtration, the concentration of the compound in the filtrate is determined by liquid chromatography using […] (LC-UV).
Sample preparation: Incubation hood: TH 15 Bühler; pH device 766 Calimatic Knick; pH electrode InLab 423 Mettler
Chromatography Conditions:
Column: Chromolith RP18e 100×3 mm
Wavelength range: 190-400 nm • select a suitable evaluation wavelength
Injection volume: Probe 5 μl and 15 μl; Standard 5 μl
Column stove temperature: 37° C.
Eluent A: water/formic acid (999:1; v/v)
Eluent B: acetonitrile/formic acid (999:1; v/v)

CNc1cc(-c2cccc(Cl)c2Cl)nc(N)n1 [TH-287, reference compound]
IC50 [1]: < 1 nM | solubility at 24 h [2]: 22 µg/mL (≈ 81.7 µM)
